{"source": "patent US9821004B2", "about": "“Inhibition of a lncRNA for treatment of melanoma” (VIB VZW, priority 2013, dated 2017)", "key": {"[1]": {"tested_on": "BRAFV600E human melanoma cell line", "assay": "Apoptosis (Annexin-5-positive cells by FACS) after gapmer transfection plus BRAFV600E-inhibitor", "type": "cell-based", "settings": "gapmer 3 transfection; 24 hours after exposure to the BRAFV600E-inhibitor, 48 hours after transfection, FIG. 16", "description": "Apoptosis was measured by quantification of Annexin-5-positive cells by FACS 24 hours after exposure to the BRAFV600E-inhibitor (and 48 hours after transfection). Representative pictures of the cells are shown.\nImportantly, knock-down of LINC01212 sensitizes BRAFV600E-melanoma cells to a BRAF-inhibitor currently used in the clinic, […] (FIG. 16)."}, "[2]": {"tested_on": "BRAFV600E-positive melanomas", "settings": "patients with BRAFV600E-positive melanomas; cited from earlier work"}}, "data": [{"smiles": "CCCS(=O)(=O)Nc1ccc(F)c(C(=O)c2c[nH]c3ncc(-c4ccc(Cl)cc4)cc23)c1F", "note": "[PLX4032]", "values": [{"measurement": "sensitization of BRAFV600E-melanoma cells to BRAF-inhibitor by LINC01212 knock-down (apoptosis)", "setting": "[1]", "value": "sensitizes"}, {"measurement": "anti-tumor response rate", "setting": "[2]", "value": 80, "unit": "%"}]}]}
